Measurements published in the CheMixHub ionic liquid set.
± gives the uncertainty stated by the source.

Assay: xn = mol fraction of the nth substance listed

CCCC[n+]1ccccc1.F[B-](F)(F)F + CCCC[n+]1ccccc1.O=S(=O)([N-]S(=O)(=O)C(F)(F)F)C(F)(F)F
101 kPa, x2 = 0
Conditions | viscosity [mPa·s]
303.15 K | 123.6 ± 4.4
353.15 K | 17.7 ± 0.4

COCCOCCOC + CCCC[n+]1ccn(C)c1.F[B-](F)(F)F
100 kPa
Conditions | viscosity [mPa·s]
283.15 K, x2 = 0.05926 | 2.33 ± 0.027
283.15 K, x2 = 0.1017 | 2.93 ± 0.035
283.15 K, x2 = 0.193 | 4.788 ± 0.059
283.15 K, x2 = 0.2925 | 8.04 ± 0.1
283.15 K, x2 = 0.3989 | 14.34 ± 0.19
283.15 K, x2 = 0.4972 | 23.78 ± 0.33
283.15 K, x2 = 0.5761 | 35.48 ± 0.51
283.15 K, x2 = 0.6977 | 62.63 ± 0.97
283.15 K, x2 = 0.7915 | 93.5 ± 1.8
283.15 K, x2 = 0.8978 | 151.1 ± 3.7
283.15 K, x2 = 0.9426 | 187.3 ± 5
293.15 K, x2 = 0.05427 | 1.895 ± 0.022
293.15 K, x2 = 0.1026 | 2.374 ± 0.028
293.15 K, x2 = 0.195 | 3.051 ± 0.038
293.15 K, x2 = 0.2987 | 6.258 ± 0.079
293.15 K, x2 = 0.3891 | 9.33 ± 0.12
293.15 K, x2 = 0.4902 | 16.39 ± 0.23
293.15 K, x2 = 0.5631 | 22.79 ± 0.33
293.15 K, x2 = 0.6762 | 35.31 ± 0.54
293.15 K, x2 = 0.7902 | 55.27 ± 0.89
293.15 K, x2 = 0.8969 | 86 ± 1.6
293.15 K, x2 = 0.9436 | 103.9 ± 2.2
303.15 K, x2 = 0.04967 | 1.214 ± 0.015
303.15 K, x2 = 0.05867 | 1.133 ± 0.014
303.15 K, x2 = 0.1027 | 1.519 ± 0.018
303.15 K, x2 = 0.1925 | 2.927 ± 0.036
303.15 K, x2 = 0.2857 | 4.426 ± 0.056
303.15 K, x2 = 0.4003 | 7.339 ± 0.098
303.15 K, x2 = 0.4952 | 10.86 ± 0.15
303.15 K, x2 = 0.5755 | 15.38 ± 0.22
303.15 K, x2 = 0.6993 | 24.97 ± 0.39
303.15 K, x2 = 0.7943 | 35.15 ± 0.58
303.15 K, x2 = 0.8999 | 51.8 ± 0.88
303.15 K, x2 = 0.9387 | 59.7 ± 1
313.15 K, x2 = 0.08858 | 1.238 ± 0.015
313.15 K, x2 = 0.168 | 1.472 ± 0.018
313.15 K, x2 = 0.2583 | 2.155 ± 0.028
313.15 K, x2 = 0.3563 | 3.486 ± 0.046
313.15 K, x2 = 0.4578 | 5.566 ± 0.077
313.15 K, x2 = 0.5473 | 8.36 ± 0.12
313.15 K, x2 = 0.6683 | 12.94 ± 0.2
313.15 K, x2 = 0.7655 | 18.99 ± 0.31
313.15 K, x2 = 0.8894 | 28.19 ± 0.49
313.15 K, x2 = 0.9307 | 31.25 ± 0.56

COCCOCCOC + CCCC[n+]1ccn(C)c1.F[P-](F)(F)(F)(F)F
100 kPa
Conditions | viscosity [mPa·s]
283.15 K, x2 = 0.2056 | 7.206 ± 0.087
283.15 K, x2 = 0.5857 | 63.81 ± 0.93
283.15 K, x2 = 0.8057 | 237.7 ± 7
283.15 K, x2 = 0.8992 | 407 ± 15
293.15 K, x2 = 0.1028 | 2.611 ± 0.031
293.15 K, x2 = 0.4923 | 23.24 ± 0.32
293.15 K, x2 = 0.5839 | 39.17 ± 0.58
293.15 K, x2 = 0.9523 | 295.7 ± 9.9
303.15 K, x2 = 0.0572 | 1.283 ± 0.015
303.15 K, x2 = 0.3956 | 8.98 ± 0.12
303.15 K, x2 = 0.7842 | 65.7 ± 1.1
313.15 K, x2 = 0.3979 | 4.083 ± 0.056
313.15 K, x2 = 0.5861 | 13.01 ± 0.19

COCCOCCOC + CCCC[n+]1ccn(C)c1.O=S(=O)([N-]S(=O)(=O)C(F)(F)F)C(F)(F)F
Conditions | electrical conductivity [S/m]
294.5 K, 100 kPa, x2 = 0.03433 | 0.44 ± 0.04

NC(N)=NCCC[C@H](N)C(=O)O + CCCC[n+]1ccn(C)c1.[Br-] + O
viscosity [mPa·s], 101.3 kPa
Conditions | 293.15 K | 298.15 K | 303.15 K | 308.15 K | 313.15 K
x1 = 0.000359, x2 = 0 | 1.013 ± 0.013 | 0.904 ± 0.012 | 0.839 ± 0.011 | 0.771 ± 0.01 | 0.691 ± 0.009
x1 = 0.0003655, x2 = 0.00072 | 1.037 ± 0.014 | 0.922 ± 0.012 | 0.833 ± 0.011 | 0.754 ± 0.01 | 0.688 ± 0.009
x1 = 0.0003655, x2 = 0.001439 | 1.058 ± 0.014 | 0.914 ± 0.012 | 0.816 ± 0.011 | 0.744 ± 0.01 | 0.675 ± 0.009
x1 = 0.0007208, x2 = 0 | 1.025 ± 0.014 | 0.915 ± 0.012 | 0.851 ± 0.011 | 0.783 ± 0.01 | 0.703 ± 0.009
x1 = 0.0007266, x2 = 0.0007198 | 1.048 ± 0.014 | 0.933 ± 0.012 | 0.844 ± 0.011 | 0.766 ± 0.01 | 0.7 ± 0.009
x1 = 0.0007324, x2 = 0.001438 | 1.069 ± 0.014 | 0.925 ± 0.012 | 0.827 ± 0.011 | 0.756 ± 0.01 | 0.686 ± 0.009
x1 = 0.001079, x2 = 0 | 1.036 ± 0.014 | 0.927 ± 0.012 | 0.863 ± 0.011 | 0.795 ± 0.011 | 0.715 ± 0.009
x1 = 0.001088, x2 = 0.0007195 | 1.059 ± 0.014 | 0.944 ± 0.012 | 0.855 ± 0.011 | 0.777 ± 0.01 | 0.712 ± 0.009
x1 = 0.001098, x2 = 0.001438 | 1.08 ± 0.014 | 0.936 ± 0.012 | 0.838 ± 0.011 | 0.767 ± 0.01 | 0.698 ± 0.009
x1 = 0.001446, x2 = 0 | 1.047 ± 0.014 | 0.938 ± 0.012 | 0.874 ± 0.012 | 0.806 ± 0.011 | 0.726 ± 0.01
x1 = 0.001452, x2 = 0.0007192 | 1.07 ± 0.014 | 0.955 ± 0.013 | 0.866 ± 0.011 | 0.788 ± 0.01 | 0.723 ± 0.01
x1 = 0.001462, x2 = 0.001437 | 1.091 ± 0.014 | 0.947 ± 0.013 | 0.849 ± 0.011 | 0.778 ± 0.01 | 0.709 ± 0.009
x1 = 0.001811, x2 = 0.000719 | 1.081 ± 0.014 | 0.966 ± 0.013 | 0.877 ± 0.012 | 0.799 ± 0.011 | 0.734 ± 0.01
x1 = 0.00182, x2 = 0 | 1.059 ± 0.014 | 0.949 ± 0.013 | 0.885 ± 0.012 | 0.817 ± 0.011 | 0.737 ± 0.01
x1 = 0.001827, x2 = 0.001437 | 1.102 ± 0.015 | 0.958 ± 0.013 | 0.86 ± 0.011 | 0.789 ± 0.01 | 0.72 ± 0.01
x1 = 0.002121, x2 = 0.001436 | 1.114 ± 0.015 | 0.97 ± 0.013 | 0.872 ± 0.012 | 0.801 ± 0.011 | 0.732 ± 0.01
x1 = 0.002158, x2 = 0 | 1.073 ± 0.014 | 0.961 ± 0.013 | 0.897 ± 0.012 | 0.829 ± 0.011 | 0.749 ± 0.01
x1 = 0.002174, x2 = 0.0007187 | 1.093 ± 0.014 | 0.978 ± 0.013 | 0.889 ± 0.012 | 0.811 ± 0.011 | 0.746 ± 0.01
x1 = 0.002516, x2 = 0 | 1.087 ± 0.014 | 0.975 ± 0.013 | 0.911 ± 0.012 | 0.843 ± 0.011 | 0.763 ± 0.01
x1 = 0.002537, x2 = 0.0007185 | 1.106 ± 0.015 | 0.991 ± 0.013 | 0.902 ± 0.012 | 0.824 ± 0.011 | 0.759 ± 0.01
x1 = 0.002557, x2 = 0.001436 | 1.127 ± 0.015 | 0.983 ± 0.013 | 0.885 ± 0.012 | 0.814 ± 0.011 | 0.745 ± 0.01

[Cl][Zn][Cl] + CCCC[n+]1ccn(C)c1.[Cl-]
303.15 K, 100 kPa
Conditions | electrical conductivity [S/m]
x2 = 0.333 | 0.00188 ± 8e-05
x2 = 0.5 | 0.0237 ± 0.0009
x2 = 0.666 | 0.0171 ± 0.0007
